Measured values from patent US6337401B1, “Fluoromethoxyacrylic acid derivatives and their use as pest control agents” (Bayer Aktiengesellschaft, priority 1995, dated 2002).

How the values were obtained:
Format in all cases: in vivo
Plasmopara viticola = test: Plasmopara test (vine)/protective; settings: protective spray, active compound concentration 100 ppm, evaluation 6 days after inoculation
Experimental: Plasmopara Test (Vine)/Protective Solvent: 4.7 parts by weight of acetone Emulsifier: 0.3 part by weight of alkylaryl polyglycol ether To produce a suitable preparation of active compound, 1 part by weight of active compound is mixed with the stated amounts of solvent and emulsifier, and the concentrate is diluted with water to the desired concentration. To test for protective activity, young plants are sprayed with the preparation of active compound. After the spray coating has dried on, the plants are inoculated with an aqueous spore suspension of Plasmopara viticola and then remain in a humidity chamber at 20 to 22° C. and 100% relative atmospheric humidity for 1 day. The plants are then placed in a greenhouse at 21° C. and about 90% atmospheric humidity for 5 days. The plants are then moistened and placed in a humidity chamber for 1 day. Evaluation is carried out 6 days after the inoculation.

Uncinula necator = test: Uncinula test (vine)/protective; settings: protective spray, evaluation 14 days after inoculation
Experimental: (§1) Uncinula Test (Vine)/Protective Solvent: 4.7 parts by weight of acetone Emulsifier: 0.3 part by weight of alkylaryl polyglycol ether To produce a suitable preparation of active compound, 1 part by weight of active compound is mixed with the stated amounts of solvent and emulsifier, and the concentrate is diluted with water to the desired concentration. To test for protective activity, young plants are sprayed with the preparation of active compound. After the spray coating has dried on, the plants are dusted with conidia of the fungus Uncinula necator. The plants are then placed in a greenhouse at 23 to 24° C. and a relative atmospheric humidity of about 75%. Evaluation is effected 14 days after the inoculation.

Sphaerotheca fuliginea = test: Sphaerotheca test (cucumber)/protective; settings: protective spray, active compound concentration 100 ppm, evaluation 10 days after inoculation
Experimental: as §1, with “Sphaerotheca Test (Cucumber)/Protective” for “Uncinula Test (Vine)/Protective”, “Sphaerotheca Test (Cucumber)/Protective Solvent: 4.7” for “Uncinula Test (Vine)/Protective Solvent: 4.7”, “the fungus Sphaerotheca fuliginea. The plants” for “the fungus Uncinula necator. The plants”, “C. and at a relative” for “C. and a relative”, “Evaluation is carried out 10 days after” for “Evaluation is effected 14 days after”

Venturia inaequalis = test: Venturia test (apple)/protective; settings: protective spray, active compound concentration 10 ppm, evaluation 12 days after inoculation
Experimental: Venturia Test (Apple)/Protective Solvent: 4.7 parts by weight of acetone Emulsifier: 0.3 part by weight of alkylaryl polyglycol ether To produce a suitable preparation of active compound, 1 part by weight of active compound is mixed with the stated amounts of solvent and emulsifier, and the concentrate is diluted with water to the desired concentration. To test for protective activity, young plants are sprayed with the preparation of active compound. After the spray coating has dried on, the plants are inoculated with an aqueous conidia suspension of the apple scab causative organism Venturia inaequalis and then left in an incubation cabin at 20° C. and 100% relative atmospheric humidity for 1 day. The plants are then placed in a greenhouse at 20° C. and a relative atmospheric humidity of about 70%. Evaluation is carried out 12 days after the inoculation.

[1] = test system: Erysiphe graminis f.sp. hordei; test: Erysiphe test (barley)/protective; settings: protective spray, application rate 250 g/ha, evaluation 7 days after inoculation
Experimental: Erysiphe Test (Barley)/Protective Solvent: 10 parts by weight of N-methyl-pyrrolidone Emulsifier: 0.6 part by weight of alkylaryl polyglycol ether To produce a suitable preparation of active compound, 1 part by weight of active compound is mixed with the stated amounts of solvent and emulsifier, and the concentrate is diluted with water to the desired concentration. To test for protective activity, young plants are sprayed with the preparation of active compound at given application rate. After the spray coating has dried on, the plants are dusted with spores of Erysiphe graminis f.sp. hordei. The plants are placed in a greenhouse at a temperature of about 20° C. and a relative atmospheric humidity of about 80%, in order to promote the development of powdery mildew pustules. Evaluation is carried out 7 days after the inoculation.

Leptosphaeria nodorum = Leptosphaeria nodorum test (wheat)/protective; settings: protective spray, application rate 250 g/ha, evaluation 10 days after inoculation
Experimental: Leptosphaeria nodorun Test (Wheat)/Protective Solvent: 10 parts by weight of N-methyl-pyrrolidone Emulsifier: 0.6 part by weight of alkylaryl polyglycol ether To produce a suitable preparation of active compound, 1 part by weight of active compound is mixed with the stated amounts of solvent and emulsifier, and the concentrate is diluted with water to the desired concentration. To test for protective activity, young plants are sprayed with the preparation of active compound. After the spray coating has dried on, the plants are sprayed with a spore suspension of Leptosphaeria nodorum. The plants remain for 48 hours in an incubation cabin at 20° C. and 100% relative atmospheric humidity. The plants are placed in a greenhouse at a temperature of about 15° C. and a relative atmospheric humidity of about 80%. Evaluation is effected 10 days after the inoculation.

COC(=O)/C(=C/OCF)c1ccccc1Oc1nc(-c2ccc(Br)cc2)ns1 [Example 2, methyl 2-{2-[3-(4-bromophenyl)-1,2,4-thiadiazol-5-yloxy]-phenyl}-3-fluoromethoxy-acrylate]
Efficacy in % of the untreated control (Plasmopara viticola): 100%
Efficacy (Uncinula necator; active compound concentration 10 ppm): 100%
Efficacy in % of the untreated control (Uncinula necator; active compound concentration 25 ppm (table)): 100%
Efficacy in % of the untreated control (Sphaerotheca fuliginea): 100%
Efficacy in % of the untreated control (Venturia inaequalis): 100%
Efficacy in % of the untreated control [1]: 81%
Efficacy in %, relative to the untreated control (Leptosphaeria nodorum): 88%
